The IC50 is the concentration that inhibits the measured activity by half.

Each structure is given as a SMILES string.

T1 sequence (O00763 144-2458): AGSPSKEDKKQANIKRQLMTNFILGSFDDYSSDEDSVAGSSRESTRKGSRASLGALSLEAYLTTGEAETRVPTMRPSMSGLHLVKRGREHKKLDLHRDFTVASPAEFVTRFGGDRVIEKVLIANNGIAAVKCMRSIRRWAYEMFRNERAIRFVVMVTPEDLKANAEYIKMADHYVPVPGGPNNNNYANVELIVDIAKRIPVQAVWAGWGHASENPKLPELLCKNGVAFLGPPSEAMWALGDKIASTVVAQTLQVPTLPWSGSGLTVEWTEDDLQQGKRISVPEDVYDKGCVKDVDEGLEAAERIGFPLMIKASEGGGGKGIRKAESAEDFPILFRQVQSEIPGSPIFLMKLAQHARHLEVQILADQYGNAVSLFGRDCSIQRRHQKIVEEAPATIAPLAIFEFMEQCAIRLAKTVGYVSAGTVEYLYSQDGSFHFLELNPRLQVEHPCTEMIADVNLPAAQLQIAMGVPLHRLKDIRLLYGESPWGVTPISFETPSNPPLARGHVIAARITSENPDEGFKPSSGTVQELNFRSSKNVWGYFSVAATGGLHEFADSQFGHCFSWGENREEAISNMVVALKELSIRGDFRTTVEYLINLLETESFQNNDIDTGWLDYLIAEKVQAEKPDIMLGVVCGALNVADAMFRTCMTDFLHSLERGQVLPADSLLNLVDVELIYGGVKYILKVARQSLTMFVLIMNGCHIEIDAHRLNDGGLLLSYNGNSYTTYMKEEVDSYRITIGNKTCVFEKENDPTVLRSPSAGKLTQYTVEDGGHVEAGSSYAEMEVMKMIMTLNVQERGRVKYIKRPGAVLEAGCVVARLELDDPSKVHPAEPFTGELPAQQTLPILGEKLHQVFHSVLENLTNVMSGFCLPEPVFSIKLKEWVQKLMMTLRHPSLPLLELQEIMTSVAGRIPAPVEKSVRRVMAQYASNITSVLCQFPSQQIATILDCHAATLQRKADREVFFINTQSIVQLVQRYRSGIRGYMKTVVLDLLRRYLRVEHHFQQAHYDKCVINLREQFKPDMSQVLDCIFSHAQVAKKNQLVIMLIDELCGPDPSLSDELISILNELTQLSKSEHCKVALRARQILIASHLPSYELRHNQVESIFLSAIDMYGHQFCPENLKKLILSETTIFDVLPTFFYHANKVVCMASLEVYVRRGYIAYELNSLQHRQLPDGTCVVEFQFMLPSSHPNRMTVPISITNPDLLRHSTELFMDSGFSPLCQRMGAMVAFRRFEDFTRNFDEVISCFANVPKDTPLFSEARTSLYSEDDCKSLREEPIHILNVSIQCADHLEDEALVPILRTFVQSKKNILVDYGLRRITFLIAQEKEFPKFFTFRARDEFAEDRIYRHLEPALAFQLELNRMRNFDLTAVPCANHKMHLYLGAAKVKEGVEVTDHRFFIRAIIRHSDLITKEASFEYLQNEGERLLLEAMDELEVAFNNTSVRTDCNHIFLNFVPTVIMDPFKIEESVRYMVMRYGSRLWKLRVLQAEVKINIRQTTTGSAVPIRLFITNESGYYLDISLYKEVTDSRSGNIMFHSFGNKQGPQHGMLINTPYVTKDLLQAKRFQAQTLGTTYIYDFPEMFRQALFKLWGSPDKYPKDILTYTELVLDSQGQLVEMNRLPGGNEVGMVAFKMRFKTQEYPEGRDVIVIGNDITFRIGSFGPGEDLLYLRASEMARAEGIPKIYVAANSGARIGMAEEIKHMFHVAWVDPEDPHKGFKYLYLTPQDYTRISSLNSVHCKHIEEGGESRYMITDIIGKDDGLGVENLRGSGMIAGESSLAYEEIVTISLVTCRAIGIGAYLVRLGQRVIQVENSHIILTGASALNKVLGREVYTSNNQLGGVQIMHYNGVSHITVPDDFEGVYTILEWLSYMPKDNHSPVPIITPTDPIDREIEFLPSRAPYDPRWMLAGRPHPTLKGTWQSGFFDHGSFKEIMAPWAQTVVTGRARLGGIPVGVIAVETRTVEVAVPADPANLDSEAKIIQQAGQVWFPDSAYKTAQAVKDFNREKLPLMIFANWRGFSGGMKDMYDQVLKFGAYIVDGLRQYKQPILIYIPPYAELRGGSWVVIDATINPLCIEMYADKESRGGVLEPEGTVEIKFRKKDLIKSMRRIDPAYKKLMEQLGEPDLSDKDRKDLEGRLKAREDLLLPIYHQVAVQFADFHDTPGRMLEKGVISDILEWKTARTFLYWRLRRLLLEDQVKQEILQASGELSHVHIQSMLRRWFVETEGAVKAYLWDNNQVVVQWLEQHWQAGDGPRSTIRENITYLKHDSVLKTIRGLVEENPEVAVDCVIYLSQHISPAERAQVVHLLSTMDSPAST

This assay has as its target T1, human acetyl-CoA carboxylase 2 (ACC2) (Homo sapiens, UniProt O00763).
T1 construct: The cDNA encoding amino acids 144 to 2458 of human acetyl-CoA carboxylase 2; made in house; host or cells: Sf9 insect cells (baculovirus, pFastBac1)
In words: Acetyl-CoA carboxylase enzyme assay (malonyl-CoA formation by LC/MS/MS). It is filed as biochemical. The settings on record: recombinant human ACC2 (aa 144-2458); read-out: IC50 ACC2. An excerpt:
The cDNA encoding amino acids 144 to 2458 of human acetyl-CoA carboxylase 2 (ACC2, GenBank Accession #NM_001093) was cloned into the SalI and NotI sites of pFastBac1 (Invitrogen; Carlsbad, Calif.). The resulting plasmid was used to generate a recombinant ACC2 baculovirus that was amplified and titered according to the protocols in the Bac-to-Bac baculovirus expression system manual (Invitrogen). The titered virus was used to infect Sf9 cells grown in Ex-Cell 420 serum-free medium (JRH Biosciences; Lenexa, Kans.). At 48 hours post-infection, the cells were harvested and stored at −80° C. until purification. ACC2 was purified using ammonium sulfate precipitation and anion exchange chromatography.
The enzymatic assay was run as follows: 30 μL of reaction buffer (100 mM HEPES pH 7.5, 20 mM MgCl2, 20 mM potassium citrate, 2 mM DTT) was added to a 384-well microtiter plate followed by 2 μL of the test compound (or 100% DMSO control). ACC2 protein (10 μL of a 50 nM working solution) was added to plate, which was incubated at room temperature for 15 minutes. A 30 μL addition of substrate solution (50 μM acetyl-CoA, 120 μM ATP, 2 mM KHCO3) was used to initiate the reactions which were quenched with 6% acetic acid (40 μL). ACC catalyzed malonyl-CoA formation was detected by LC/MS/MS using a Cohesive Technologies LX Series multiplex LC/MSIMS system configured with four binary pumps (Agilent Technologies; Palo Alto, Calif.), a dual arm autosampler (Leap Technologies; Cary, N.C.), and one Quattro Micro triple quadrupole mass spectrometer (Waters, Milford, Mass.), all run by Aria Software version 1.5 (Cohesive Technologies; Franklin, Mass.). Four samples were injected (20 μL) onto four Phenosphere NEXT C18 30×2 mm 5 μm columns (Phenomenex; Torrance, Calif.), eluted by four separate pumps, running identical gradients, through a column switching manifold with the one outlet fitted to the electrospray (ESI) source. Malonyl-CoA was eluted with 5 mM ammonium acetate, pH 4.5 (Buffer A) and 100% acetonitrile (Buffer B) via a step gradient. Argon was used as the collision gas and the following species were monitored via MRM detection: malonyl-CoA (853.8>346.9), internal standard (A: [^13C3]-malonyl-CoA, 857>350). The lower limit of detection is 0.3 uM for malonyl-CoA in this assay.
As for `CC(C)(C)OC(=O)c1ccc(NS(=O)(=O)c2ccc3[nH]c(-c4ccccc4)nc3c2)cc1` [Example 489, tert-butyl 4-(2-phenyl-1H-benzo[d]imidazole-5-sulfonamido)benzoate], the IC50 is 1110 nM.

Turning to `CNCc1ccc(-c2nc3cc(S(=O)(=O)Nc4ccc(C(=O)OC(C)C)cc4)ccc3[nH]2)cc1` [Example 559, isopropyl 4-(2-(4-((methylamino)methyl)phenyl)-1H-benzo[d]imidazole-5-sulfonamido)benzoate], the IC50 turned out to be 163 nM.

In the case of `C[C@@H](NC(=O)[C@H]1CC[C@H](NS(=O)(=O)c2ccc3c(c2)OCO3)CC1)c1ccc(F)cc1` [Example 661, (1r,4R)-4-(benzo[d][1,3]dioxole-5-sulfonamido)-N-((R)-1-(4-fluorophenyl)ethyl)cyclohexanecarboxamide], the IC50 came out at 733 nM.

In the case of `CCCN(C)C(=O)[C@H]1CC[C@H](NS(=O)(=O)c2ccc3[nH]c(Nc4ccccc4)nc3c2)CC1` [Example 566, (1r,4r)-N-methyl-4-(2-(phenylamino)-1H-benzo[d]imidazole-5-sulfonamido)-N-propylcyclohexanecarboxamide], the IC50 came out at 118 nM.

On to `C[C@@H](NC(=O)[C@H]1CC[C@H](NS(=O)(=O)c2cccc3nc(-c4ccccc4)cn23)CC1)c1ccc(F)cc1` [Example 65, (1r,4R)-N-((R)-1-(4-fluorophenyl)ethyl)-4-(2-phenylimidazo[1,2-a]pyridine-5-sulfonamido)cyclohexanecarboxamide], for which the IC50 was determined as 149 nM.

For `COCc1ccc(-c2cc3ccc(S(=O)(=O)N[C@H]4CC[C@H](C(=O)N5CCOC[C@@H]5C(C)C)CC4)cc3n2C)cc1` [Example 438, N-((1S,4r)-4-((S)-3-isopropylmorpholine-4-carbonyl)cyclohexyl)-2-(4-(methoxymethyl)phenyl)-1-methyl-1H-indole-6-sulfonamide], the IC50 was < 10 nM.

In the case of `CCN(C)C(=O)[C@H]1CC[C@H](NS(=O)(=O)c2ccc3c(Cl)c(-c4ccc(CCC(=O)OC)cc4)n(C)c3c2)CC1` [Example 367, methyl 3-(4-(3-chloro-6-(N-((1r,4r)-4-(ethyl(methyl)carbamoyl)cyclohexyl)sulfamoyl)-1-methyl-1H-indol-2-yl)phenyl)propanoate], the IC50 is 30 nM.

Regarding `C[C@@H](NC(=O)[C@H]1CC[C@H](NS(=O)(=O)c2ccc3[nH]c(-c4ccc(N5CCN(C)CC5)cc4)nc3c2)CC1)c1ccccc1` [Example 575, (1r,4R)-4-(2-(4-(4-methylpiperazin-1-yl)phenyl)-1H-benzo[d]imidazole-5-sulfonamido)-N-((R)-1-phenylethyl)cyclohexanecarboxamide], the IC50 is < 10 nM.

Consider `C[C@@H](NC(=O)[C@H]1CC[C@H](NS(=O)(=O)c2cnc3ccccc3c2)CC1)c1ccccc1` [Example 55, (1r,4R)-N-((R)-1-phenylethyl)-4-(quinoline-3-sulfonamido)cyclohexanecarboxamide], for which the IC50 worked out at 134 nM.

As for `CC(C)(C)OC(=O)N1CCN(C(=O)C2CCC(NS(=O)(=O)c3ccc4c(c3)CCCN4)CC2)C(c2ccccc2)C1` (stereo not drawn) [Example 173, tert-butyl 3-phenyl-4-((1r,4r)-4-(1,2,3,4-tetrahydroquinoline-6-sulfonamido)cyclohexanecarbonyl)piperazine-1-carboxylate], the IC50 was found to be 75 nM.

With `COCCOc1ccc(-c2cc3ccc(S(=O)(=O)N[C@H]4CC[C@H](C(=O)N[C@H](C)C(F)(F)F)CC4)cc3n2C)cc1` [Example 453, (1r,4R)-4-(2-(4-(2-methoxyethoxy)phenyl)-1-methyl-1H-indole-6-sulfonamido)-N-((R)-1,1,1-trifluoropropan-2-yl)cyclohexanecarboxamide], the IC50 turned out to be 165 nM.

As for `Cn1c(-c2ccc(CO)cc2)cc2ccc(S(=O)(=O)N[C@H]3CC[C@H](C(=O)N4CCN[C@@H](C(F)(F)F)C4)CC3)cc21` [Example 338, 2-(4-(hydroxymethyl)phenyl)-1-methyl-N-((1R,4r)-4-((R)-3-(trifluoromethyl)piperazine-1-carbonyl)cyclohexyl)-1H-indole-6-sulfonamide], the IC50 turned out to be 15 nM.

The values above are taken from patent publication US8697739B2, “Bicyclic acetyl-CoA carboxylase inhibitors and uses thereof” (Novartis AG, priority 2010, dated 2014).
